# Measurements from patent US5430058A, “Pharmaceutical compositions comprising hydroxamate derivatives for iron removal” (Yeda Research and Development Co. Ltd., priority 1993, dated 1995).
# Where two headings read alike, the source gives them in different places.
# How the values were obtained:
# [1] = tested on: Plasmodium falciparum strain W2; assay: Antimalarial activity in various strains, W2; assay type: cell-based
# Procedure: (§1) f. Parasite cultures. The P. falciparum strains used in the experiments: ItG2G1 (Brazil, provided by Dr. L. H. Miller), D6 (W. African, provided by Dr. A. J. M. Oduola) FCR-3 (Gambian, provided by Dr. J. B. Jensen) and W2 (Indochina, provided by Dr. A. J. M. Oduola), were grown in culture flasks of human erythrocytes by a modified version of Trager and Jensen's method as described by Silfen et al. ((1988) Biochem. Pharmacol. 37: 4269-4276)).
# (§2) g. Bioassay of iron carrier antimalarial activity. […] After the indicated time of incubation with drug and either previous to or after washing 3 times with 100 volumes growth medium, the cells were supplemented with 6 μCi of either [^3 H]-hypoxanthine or [^3 H]-Ileu (Amersham, England) per well and parasite growth assessed after 24-48 hours by harvesting the labelled cells onto glass-fiber filters (Tamar, Inc. Jerusalem) and counting of the radioactivity.
# (§3) It is clear that the efficacy of the agents is primarily correlated with the respective octanol/saline partition coefficient or the hydrophobicity of the amino acid side chain, and only secondarily with their iron binding efficiencies, which are relatively high for all the agents. […] The antimalarial activity of the various chelators was assessed over a 24 hr period of exposure on infected cells (trophozoite stage of P. falciparum) as described in method (g). […]
# [2] = tested on: Plasmodium falciparum strain FCR3; assay: Antimalarial activity in various strains, FCR3; assay type: cell-based
# Procedure: as §1, §2, §3
# infected red cells = assay: Uptake of 59Fe-carrier complexes into infected red cells; assay type: cell-based, human erythrocytes infected with P. falciparum
# Procedure: k. Uptake of radioactive carrier-Fe complexes. DFO and the different SF derivatives were pre-complexed with iron by addition of concentrated stock solutions of 20 mg/ml carriers to ^59 FeCl3 (Amersham, England) in 0.5 ml of 150 mM NaCl, 10 mM Hepes at 3-5 molar excess of carrier for 1 hour at room temperature. To begin the flux, normal or parasitized red cells that had been washed 3 times in saline buffer and resuspended in the same buffer supplemented with 5% bovine serum albumin (BSA), 2.5 mM citrate, 2 mg/ml glucose were added to radioactive ^59 Fe-complexes at a final suspension of 20% hematocrit. After incubation at 37° C., 75 μl suspension was removed in duplicate aliquots for each time point, placed in plastic 15 ml test tube (Starstedt) and centrifuged 1 minute at 2,500 g. The supernatant was removed and the pellet immediately placed on ice. After all sampling was completed the pellets were washed twice in 15 ml of ice cold buffer containing 50 mM EDTA and lysed in distilled water. Radioactivity (Gamma emission, 700-1300 Kev) was counted and the cell number for each sample determined from hemoglobin absorption of the lysate at 410 nm.
# Penetration of RSF's into normal and infected red cells was estimated by monitoring uptake of the RSF's-^59 Fe(III) complexes into infected and uninfected cells and compared to DFO. In order to confirm actual uptake of Fe-RSF ileun2 rather than adsorption to the outer membrane, cells were thoroughly washed and lysates were subjected to 80,000g×20 min centrifugation.
# The carriers were pre-complexed to ^59 FeCl3 at 4:1 ration in DMSO with 5 μM external FeCl3 (from methanolic stock solutions). The radioactive complexes were then added to 20% hematocrit cell suspensions and flux was measured. […] Cell number was determined from hemoglobin absorption of lysate at 410 nm.
# [3] = Partition between n-octanol and saline; assay type: physicochemical; details: for rel. Pcoeff (a): Table 2, relative to L-val-n1 = 1.0
# Procedure: e. Partition coefficients were obtained by overnight equilibration of the free reversed siderophores between equal volumes of n-octanol and saline. The concentrations of the ligands in each phase were determined by adding excess iron(III) and measuring the ferric complexes at 430 nm.
# The values for Pcoeff of free RSF ileun2 (the same as SF1ileu) and of leun2 and their respective iron(III) complexes were similar (not shown).
# [4] = tested on: synchronized cultures of rings (P. falciparum); assay: Time dependence of parasite growth inhibition, rings; assay type: cell-based, Plasmodium falciparum; details: for inhibition at 10 µg/mL: Plasmodium falciparum, read-out: Inhibition of parasite growth; for Inhibitory effect, in words: rings
# Procedure: (§4) g. Bioassay of iron carrier antimalarial activity. The antimalarial activity was assayed by adding the compounds from concentrated stock solutions (in DMSO) to microcultures (24 wells, Costar) containing infected red cells (2.5% hematocrit and 2% parasitemia). The cultures were usually synchronized (4-7 hrs. windows) by incubation in 300 mM Ala, 10 mM TRIS-Cl in conjunction with gelatin flotation and used either at the trophozoite (1-2% parasitemia) or at the ring stage (4-6% parasitemia) of the erythrocyctic cycle. After the indicated time of incubation with drug and either previous to or after washing 3 times with 100 volumes growth medium, the cells were supplemented with 6 μCi of either [^3 H]-hypoxanthine or [^3 H]-Ileu (Amersham, England) per well and parasite growth assessed after 24-48 hours by harvesting the labelled cells onto glass-fiber filters (Tamar, Inc. Jerusalem) and counting of the radioactivity.
# (§5) To study the growth stage of parasites most sensitive to inhibition, the time dependence of the inhibitory effect of SF1-ileu (10 μg/ml) vis a vis that of DFO (80 μg/ml) was assessed both on synchronized cultures of rings and of cultures of trophozoites. The cells were exposed to the […], the cells were washed from extracellular drug and assessed for [^3 H]-hypoxanthine incorporation after the last sample completed the 4 hours incubation period with drug.
# [5] = tested on: trophozoites of P. falciparum; assay: Antimalarial activity (Table 2), [3H]-hypoxanthine incorporation; assay type: cell-based, Plasmodium falciparum; details: 40 h
# Procedure: as §4, with “radioactivity. […]” for “radioactivity.”
# [6] = tested on: trophozoites of P. falciparum, strain ItG2G1; assay: Antimalarial activity (Table 1), [3H]hypoxanthine incorporation; assay type: cell-based; details: Plasmodium falciparum
# Procedure: as §1, §4
# The antimalarial activity of the different chelators was initially evaluated on cultures of trophozoites which were exposed for 24 hours to different concentrations of chelators. Following that period, [^3 H]-hypoxanthine or [^3 H]-Ileu were added and 24 hours later the parasitemia and incorporation of label into macromolecular material was determined.
# [7] = tested on: synchronized cultures of trophozoites (P. falciparum); assay: Time dependence of parasite growth inhibition, trophozoites; assay type: cell-based, Plasmodium falciparum; details: for inhibition at 10 µg/mL: Plasmodium falciparum, read-out: Inhibition of parasite growth; for Inhibitory effect, in words: trophozoites
# Procedure: as §4, §5
# [8] = iron(III) complex, infected red cells, 5 μM external Fe
# [9] = 0.5 hr incubation, SF1-ileu 10 μg/ml
structure (smiles),measurement,setting,value
CC[C@H](C)[C@H](NC(=O)CCOCC(CC)(COCCC(=O)N[C@H](C(=O)N(C)O)[C@@H](C)CC)COCCC(=O)N[C@H](C(=O)N(C)O)[C@@H](C)CC)C(=O)N(C)O [SF1-ileu],IC50,"[1]; W2, 48 h",4 ± 1 µg/mL
same,IC50,"[2]; FCR3, 48 h",3 ± 1 µg/mL
same,Time to maximum uptake,"infected red cells; iron(III) complex, infected red cells",10 to 15 min
same,Maximum uptake level,infected red cells; [8],4 nmoles/10^10 cells
same,Uptake t1/2,infected red cells; [8],2 to 3 min
same,logP,"[3]; Table 1, free ligand, read-out: Partition coefficient (converted)",1.15
same,rel. Pcoeff (a),[3],8.2
same,Pcoeff of free ligand vs iron(III) complex,[3]; not shown,similar
same,inhibition at 10 µg/mL,[4]; 2 h,~70%
same,inhibition at 10 µg/mL,[4]; 20 h,> 95%
same,"Inhibitory effect, in words",[4]; [9],major inhibitory effects
same,IC50,"[5]; Plasmodium falciparum, read-out: IC50 (c)",3 ± 2 µM
same,IC50,[6]; 48 h,2 µg/mL
same,inhibition at 10 µg/mL,[7]; 2 h,~90%
same,inhibition at 10 µg/mL,[7]; 20 h,> 95%
same,"Inhibitory effect, in words",[7]; [9],major inhibitory effects
"CC(=O)N(O)CCCCCNC(=O)CCC(=O)N(O)CCCCCNC(=O)CCC(=O)N(O)CCCCCN [DFO, desferrioxamine B, reference compound]",IC50,"[1]; strain W2 (chloroquine-resistant), 48 hour exposure, trophozoites, read-out: IC50",31 ± 6 µg/mL
same,IC50,"[2]; strain FCR3 (chloroquine-resistant), 48 hour exposure, trophozoites, read-out: IC50",32 ± 7 µg/mL
same,Uptake into infected vs normal red cells,"infected red cells; DFO-Fe, 8 hour time course",approximately twice that of normal red cells
same,Uptake level lower than that attained by RSF's after 10 minutes,infected red cells; intracellular Fe-DFO after 8 hours vs RSF's after 10 minutes,20 fold
same,rel. Pcoeff (a),[3],< 0.056
same,"Inhibitory effect, in words","[4]; DFO 80 μg/ml, 6 hrs exposure",inhibitory effects were dismal
same,"Inhibitory effect, in words","[4]; DFO 80 μg/ml, 20 hrs exposure",substantial inhibition
same,IC50 (c),[5],40 ± 8 µM
same,IC50,"[6]; 48 hours exposure, strain ItG2G1 trophozoites, read-out: IC50",30 µg/mL
same,"Inhibitory effect, in words","[7]; DFO 80 μg/ml, 6 hrs exposure",inhibitory effects were dismal
same,"Inhibitory effect, in words","[7]; DFO 80 μg/ml, 20 hrs exposure",substantial inhibition
